According to ChEMBL document CHEMBL1201862, “PubChem BioAssay data set” (2004):
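Cells were grown in 96-well plates and exposed to each compound for 48 hours at five concentrations; endpoints were interpolated linearly between bracketing concentrations, or set to the highest concentration if not reached. GI50 = concentration required for 50% inhibition of growth.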 The source made the active and inactive calls. No stated cut-off is given here; in the data, active = GI50 up to about 1.1 µM and inactive = higher.

Columns and labels:
Test in all cases: DTP human tumour cell line panel, 48 h
786-0 = tested on: 786-0
A549 = tested on: A549
ACHN = tested on: ACHN
HCC 2998 = tested on: HCC 2998
HOP-92 = tested on: HOP-92
KM12 = tested on: KM12
LOX IMVI = tested on: LOX IMVI
MOLT-4 = tested on: MOLT-4
Malme-3M = tested on: Malme-3M
NCI-H23 = tested on: NCI-H23
OVCAR-8 = tested on: OVCAR-8
SF-295 = tested on: SF-295
SF-539 = tested on: SF-539
SK-MEL-28 = tested on: SK-MEL-28
SK-MEL-5 = tested on: SK-MEL-5
SNB-19 = tested on: SNB-19
SR = tested on: SR
UO-31 = tested on: UO-31

Measured: GI50

CN(C)/C=C/C(=O)c1cccc(C(=O)/C=C/N(C)C)n1
inactive: 786-0 > 100 µM | A549 > 100 µM | ACHN > 100 µM | HCC 2998 > 100 µM | HOP-92 > 100 µM | KM12 > 100 µM | LOX IMVI > 100 µM | MOLT-4 > 100 µM | Malme-3M > 100 µM | NCI-H23 > 100 µM | OVCAR-8 80.4 µM | SF-295 > 100 µM | SF-539 > 100 µM | SK-MEL-28 > 100 µM | SK-MEL-5 > 100 µM | SNB-19 > 100 µM | SR > 100 µM | UO-31 > 100 µM

O=C1c2c(c3c4ccccc4n(CC4CO4)c3c3[nH]c4ccccc4c23)C(=O)N1Cc1ccccc1 (centres undefined)
inactive: 786-0 > 100 µM | A549 > 100 µM | HCC 2998 > 100 µM | HOP-92 > 100 µM | KM12 > 100 µM | LOX IMVI > 100 µM | MOLT-4 38.6 µM | Malme-3M > 100 µM | NCI-H23 > 100 µM | OVCAR-8 48.2 µM | SF-295 > 100 µM | SF-539 37.1 µM | SK-MEL-28 > 100 µM | SK-MEL-5 > 10 µM | SNB-19 > 100 µM | SR > 100 µM | UO-31 > 100 µM

N#CCN1C(=O)c2cc([N+](=O)[O-])cc3cc([N+](=O)[O-])cc(c23)C1=O
inactive: 786-0 11.8 µM | A549 18.6 µM | ACHN 13.2 µM | HCC 2998 15 µM | HOP-92 17.1 µM | KM12 11.2 µM | LOX IMVI 6.41 µM | MOLT-4 2.38 µM | Malme-3M 14.8 µM | NCI-H23 15.9 µM | OVCAR-8 13.8 µM | SF-295 30.5 µM | SF-539 14.6 µM | SK-MEL-28 19 µM | SK-MEL-5 15.6 µM | SNB-19 24.2 µM | SR 1.36 µM | UO-31 13.8 µM

CCOC(=O)c1[nH]c(COC(C)=O)c(CCCOC(C)=O)c1CCCOC(C)=O
inactive: 786-0 > 100 µM | A549 > 100 µM | ACHN > 100 µM | HCC 2998 > 100 µM | HOP-92 > 100 µM | KM12 > 100 µM | LOX IMVI > 100 µM | MOLT-4 > 100 µM | Malme-3M > 100 µM | NCI-H23 > 100 µM | OVCAR-8 > 100 µM | SF-295 > 100 µM | SF-539 > 100 µM | SK-MEL-28 > 100 µM | SNB-19 > 100 µM | SR > 100 µM

O=C1C2C=CC(n3[nH]c(=O)n(Cc4ccccc4)c3=O)CC2C(=O)N1c1cccc(Cl)c1 (centres undefined)
inactive: 786-0 > 100 µM | A549 > 100 µM | ACHN > 100 µM | HCC 2998 > 100 µM | HOP-92 > 100 µM | KM12 > 100 µM | LOX IMVI > 100 µM | Malme-3M > 100 µM | NCI-H23 > 100 µM | OVCAR-8 > 100 µM | SF-295 > 100 µM | SF-539 > 100 µM | SK-MEL-28 > 100 µM | SK-MEL-5 > 100 µM | SNB-19 > 100 µM | SR > 100 µM | UO-31 > 100 µM

COc1ccc(Cc2c3cc(O)c([O-])cc3cc[n+]2C)cc1
inactive: 786-0 10.2 µM | A549 30.8 µM | ACHN 6.93 µM | HCC 2998 42.6 µM | HOP-92 47.9 µM | KM12 40.2 µM | LOX IMVI 13.3 µM | MOLT-4 10.2 µM | Malme-3M 30.7 µM | NCI-H23 29.8 µM | OVCAR-8 29 µM | SF-295 19.9 µM | SF-539 19.1 µM | SK-MEL-28 22.3 µM | SK-MEL-5 20.6 µM | SNB-19 35 µM | SR 5.86 µM | UO-31 9.95 µM

COc1ccc(/C=C/c2nnc(S)[nH]2)cc1OC
inactive: 786-0 > 100 µM | A549 > 100 µM | ACHN > 100 µM | HCC 2998 > 100 µM | HOP-92 > 100 µM | LOX IMVI > 100 µM | MOLT-4 > 100 µM | Malme-3M > 100 µM | NCI-H23 > 100 µM | OVCAR-8 > 100 µM | SF-295 > 100 µM | SF-539 > 100 µM | SK-MEL-28 > 100 µM | SK-MEL-5 > 100 µM | SNB-19 > 100 µM | SR > 100 µM | UO-31 > 100 µM

CC1=CC(=O)CC2(C)CC[C@@H]3C[C@]12OC3(C)C (some centres undefined)
inactive: 786-0 > 100 µM | A549 > 100 µM | ACHN > 100 µM | HCC 2998 > 100 µM | HOP-92 > 100 µM | KM12 > 100 µM | LOX IMVI > 100 µM | MOLT-4 > 100 µM | Malme-3M > 100 µM | NCI-H23 > 100 µM | OVCAR-8 > 100 µM | SF-295 > 100 µM | SF-539 > 100 µM | SK-MEL-28 > 100 µM | SK-MEL-5 > 100 µM | SNB-19 > 100 µM | SR > 100 µM | UO-31 > 100 µM
